Measured values taken from PMC11274883, “Anticancer Effect of Pt^[sequence], Pt^II5MESS, Pt^II56MESS and Their Platinum(IV)-Dihydroxy Derivatives against Triple-Negative Breast Cancer and Cisplatin-Resistant Colorectal Cancer” (Cancers, 2024).

How the values were obtained:
Assay type in all cases: cell-based
MDA−MB−231 cells = assay: TMRE mitochondrial membrane potential assay; conditions: complexes at IC50, FCCP 20 µM
Experimental: (§1) Cells were then treated with an IC50 drug concentration for each complex. At 24, 48 or 72 h, DMEM was removed, and cells were washed with PBS. Then, cells were incubated with 1 µM tetramethylrhodamine, ethyl ester (TMRE) stain for 30 min. TMRE was then removed, and cells were washed twice with PBS (0.2% BSA), after which phenol red-free media was added. […] The cells were then stained with TMRE, as described above, and the resulting solution was scanned for fluorescence. Three independent experiments in triplicates were implemented.

HT29 cells [1] = assay: TMRE mitochondrial membrane potential assay; conditions: complexes at IC50, FCCP 20 µM
Experimental: as §1

HT29 cells [2] = assay: Western blot protein expression; conditions: HT29, IC50, 72 h; for β-actin/GAPDH normalized to control (1): representative blot Figure S28A; for β-tubulin/GAPDH normalized to control (1): representative blot Figure S28B; for α-tubulin/GAPDH normalized to control (1): representative blot Figure S28C; for p-AKT/AKT/GAPDH normalized to control (1): representative blot Figure S29A; for p-ERK/ERK/GAPDH normalized to control (1): representative blot Figure S29B; for p53/GAPDH normalized to control (1): representative blot Figure S29C; for p21/GAPDH normalized to control (1): representative blot Figure S29D; for Bax/GAPDH normalized to control (1): representative blot Figure S30A; for Bcl2/GAPDH normalized to control (1): representative blot Figure S30B; for Cyt C/GAPDH normalized to control (1): representative blot Figure S30C; for Procaspase 8/GAPDH normalized to control (1): representative blot Figure S30D; for Cleaved BID/GAPDH normalized to control (1): representative blot Figure S30E; for Procaspase 9/GAPDH normalized to control (1): representative blot Figure S30F; for Cleaved caspase 3/GAPDH normalized to control (1) / Procaspase 3/GAPDH normalized to control (1): representative blot Figure S30G; for Cleaved PARP-1/GAPDH normalized to control (1) / PARP-1/GAPDH normalized to control (1): representative blot Figure S30H; for Beclin1/GAPDH normalized to control (1): representative blot Figure S31A; for ATG5/GAPDH normalized to control (1): representative blot Figure S31B; for ATG16L1/GAPDH normalized to control (1): representative blot Figure S31C; for ATG9A/GAPDH normalized to control (1): representative blot Figure S31D; for ATG4B/GAPDH normalized to control (1): representative blot Figure S31E; for LC3B/GAPDH normalized to control (1): representative blot Figure S31F
Experimental: Protein extraction was then performed on ice. Media were collected in Eppendorf tubes, and centrifuged at 500× g for 5 min at 4 °C. Meanwhile, 200 µL of lysis RIPA buffer, made up of 150 mM NaCl, 50 mM Tris-HCl, pH 8.0, 0.1% Triton X-100, 0.5% sodium deoxycholate, 0.1% SDS and 1 mM sodium orthovanadate, was added to each well, the cells were scrapped into the buffer, and added to the media-derived pellets. The tubes were placed on the shaker for 10 min at 4 °C. Then, cell extracts were centrifuged at 12,000× g for 15 min at 4 °C, and the supernatants (containing the proteins) were collected. The Bio-Rad-DC protein assay (Bio-Rad, Hercules, CA, USA) was used to assess protein content. Laemmli protein sample buffer (4×) with β-mercaptoethanol (9%) was used to prepare a final protein concentration of 20 µg. The samples were then heated at 100 °C for 5 min. A final volume of 30 µL of each sample was added per well and subjected to SDS-PAGE using Bolt 4–12% Bis-Tris gel (Thermo Fisher, Eugene, OR, USA) at 80 V for 30 min and then 120 V for 60 min with PageRuler™ Prestained Protein or SeeBlue Prestained Protein Ladder (Thermo Fisher, Eugene, OR, USA). Proteins were subsequently transferred to a 0.2 µm PVDF membrane (Amersham, Cytiya) using a semi-dry blot transfer. The membrane was then blocked in 5% BSA in TBST, for 1 h and probed overnight at 4 °C with primary antibodies against several cell proliferation, apoptotic, anti-apoptotic, microtubule and autophagic protein markers listed in Table S7 as per the manufacturer’s protocol. The primary antibody was then removed, washed three times for 10 min with TBST and then membranes were treated with either mouse or rabbit HRP-coupled secondary antibodies (1/3000) for 1 h and 30 min. Protein band detection was then performed using the chemiluminescence ECL kit (Thermo Fisher, Eugene, OR, USA). Blot images were obtained using the Odyssey® FC imaging system (LI-COR Biosciences, Lincoln, NE, USA) and band intensities were quantified relatively to glyceraldehyde-3-phosphate dehydrogenase (GAPDH) and then normalised each replicate gel to its corresponding no treatment control using the ImageJ v1.53t software (National Institutes of Health, Bethesda, MD, USA). Each marker results from the same experiment or parallel experiment where the gels were processed in parallel. Three independent experiments per marker were conducted.

MDA−MB−231 spheroids = assay: 3D bioprinted spheroid cytotoxicity (WST-1); conditions: 72 h, mean ± SEM
Text: (§2) To evaluate the cytotoxic effect of platinum(II) and (IV) complexes in 3D cell culture, MDA−MB−231 or HT29 cells were used to bioprint networks or spheroids with the non-contact drop-on-demand 3D RASTRUM bioprinter (Inventia Life Science, Alexandria, NSW, Australia). The 3D cultures use two constituents: bioink and activator. Cell pellets (2 × 10^6 cells) were resuspended in an activator reagent which forms an instant gel after its addition to the bioink by the bioprinter. The 3D large plug cell model with polyethylene glycol bioinks formulated to mimic the properties of in vivo tissue were chosen as follows. Matrix Px02.31 (activator F177 and bioink F242 with RGD: Fibronectin) was used for MDA−MB−231 3D embedded networks, Px02.00 (activator F177 and bioink F119 without RGD additives, Table S1) was used for MDA−MB−231 spheroids and matrix #Px02.09 (activator F177 and bioink F236 with adhesion peptides including, RGD: Fibronectin, and GFOGER: collagen type I to recapitulate rich in vivo tissue extracellular environments) was used for HT29 spheroids (Inventia Life Science) (Table S1). Each cell line was printed at 10,000 cells/well and loaded with the bioink fluids into the selected printer cartridge. After the automated priming of all fluids into the printer nozzles, each cell line was individually printed on tissue culture plates (Nunc^TM MicroWell^TM 96-Well, Nunclon Delta-Treated, Flat-Bottom Microplate, ThermoFisher #167008), with RASTRUM creating the 3D Large Plug across the 96-well plate. Following completion of the print run, 200 μL DMEM culture medium was added to each well using multichannel pipettes. The plate was then incubated for 7 days (humidified incubator with 5% CO2 at 37 °C) for compact and homogenous spheroid formation before the cytotoxicity assay. When the spheroids developed, post-7-day incubation, media was removed and replaced with 100 µL DMEM. […] Cytotoxicity was then assessed using the WST-1 assay as previously described in Section 2.3.

HT29 spheroids = assay: 3D bioprinted spheroid cytotoxicity (WST-1); conditions: 72 h, mean ± SEM
Text: as §2

Row | Compound | MtMp (mitochondrial membrane potential) (MDA−MB−231 cells; MDA−MB−231, 24 h) [RFU] | MtMp (mitochondrial membrane potential) (MDA−MB−231 cells; MDA−MB−231, 48 h) [RFU] | MtMp (mitochondrial membrane potential) (MDA−MB−231 cells; MDA−MB−231, 72 h) [RFU] | MtMp (mitochondrial membrane potential) (HT29 cells [1]; HT29, 24 h) [RFU] | MtMp (mitochondrial membrane potential) (HT29 cells [1]; HT29, 48 h) [RFU] | MtMp (mitochondrial membrane potential) (HT29 cells [1]; HT29, 72 h) [RFU] | β-actin/GAPDH normalized to control (1) (HT29 cells [2]) | β-tubulin/GAPDH normalized to control (1) (HT29 cells [2]) | α-tubulin/GAPDH normalized to control (1) (HT29 cells [2]) | p-AKT/AKT/GAPDH normalized to control (1) (HT29 cells [2]) | p-ERK/ERK/GAPDH normalized to control (1) (HT29 cells [2]) | p53/GAPDH normalized to control (1) (HT29 cells [2]) | p21/GAPDH normalized to control (1) (HT29 cells [2]) | Bax/GAPDH normalized to control (1) (HT29 cells [2]) | Bcl2/GAPDH normalized to control (1) (HT29 cells [2]) | Cyt C/GAPDH normalized to control (1) (HT29 cells [2]) | Procaspase 8/GAPDH normalized to control (1) (HT29 cells [2]) | Cleaved BID/GAPDH normalized to control (1) (HT29 cells [2]) | Procaspase 9/GAPDH normalized to control (1) (HT29 cells [2]) | Cleaved caspase 3/GAPDH normalized to control (1) (HT29 cells [2]) | further results
1 | N.N.[Cl][Pt][Cl] [Cisplatin, cisplatin] | 208.24 | 177.91 | 154.83 | 270.02 | 237.68 | 188.59 | 0.6345 | 0.8003 | 0.8201 | 0.288 | 1.125 | 0.9507 | 2.964 | 1.81 | 0.5659 | 2.419 | 0.004029 | 2.527 | 0.6388 | 11.81 | Procaspase 3/GAPDH normalized to control (1) (HT29 cells [2]): 1.2; Cleaved PARP-1/GAPDH normalized to control (1) (HT29 cells [2]): 3.484; PARP-1/GAPDH normalized to control (1) (HT29 cells [2]): 0.8236; Beclin1/GAPDH normalized to control (1) (HT29 cells [2]): 3.89; ATG5/GAPDH normalized to control (1) (HT29 cells [2]): 1.193; ATG16L1/GAPDH normalized to control (1) (HT29 cells [2]): 1.173; ATG9A/GAPDH normalized to control (1) (HT29 cells [2]): 2.212; ATG4B/GAPDH normalized to control (1) (HT29 cells [2]): 1.101; LC3B/GAPDH normalized to control (1) (HT29 cells [2]): 3.233; IC50 (MDA−MB−231 spheroids): 48.5 ± 1.62 µM; IC50 (HT29 spheroids): 445000 ± 5090 nM
2 | Cc1cc2cccnc2c2ncccc12.N[C@H]1CCCC[C@@H]1N.O=[N+]([O-])[O-].O=[N+]([O-])[O-].[Pt+2] [Pt^II5MESS, [Pt(5-methyl-1,10-phenanthroline)(1S,2S-diaminocyclohexane)](NO3)2] | 230.62 | 189.85 | 150.71 | 253.81 | 211.88 | 143.93 | 0.2979 | 0.1238 | 0.06789 | 0.07338 | 0.7076 | 1.275 | 1.147 | 1.624 | 0.09591 | 3.741 | 0.2934 | 1.69 | 0.1393 | 10.88 | Procaspase 3/GAPDH normalized to control (1) (HT29 cells [2]): 0.7678; Cleaved PARP-1/GAPDH normalized to control (1) (HT29 cells [2]): 11.42; PARP-1/GAPDH normalized to control (1) (HT29 cells [2]): 0.2554; Beclin1/GAPDH normalized to control (1) (HT29 cells [2]): 3.11; ATG5/GAPDH normalized to control (1) (HT29 cells [2]): 0.9969; ATG16L1/GAPDH normalized to control (1) (HT29 cells [2]): 1.285; ATG9A/GAPDH normalized to control (1) (HT29 cells [2]): 0.4486; ATG4B/GAPDH normalized to control (1) (HT29 cells [2]): 0.7306; LC3B/GAPDH normalized to control (1) (HT29 cells [2]): 1.207; IC50 (MDA−MB−231 spheroids): 4.08 ± 1.37 µM; IC50 (HT29 spheroids): 2910 ± 1390 nM
3 | Cc1c(C)c2cccnc2c2ncccc12.N[C@H]1CCCC[C@@H]1N.O=[N+]([O-])[O-].O=[N+]([O-])[O-].[Pt+2] [Pt^II56MESS, [Pt(5,6-dimethyl-1,10-phenanthroline)(1S,2S-diaminocyclohexane)](NO3)2] | 155.45 | 131.53 | 86.51 | 159.93 | 151.44 | 102.76 | 0.4943 | 0.2182 | 0.04906 | 0.5359 | 0.8325 | 1.014 | 1.281 | 2.693 | 0.04576 | 6.706 | 0.2505 | 2.821 | 0.2717 | 5.099 | Procaspase 3/GAPDH normalized to control (1) (HT29 cells [2]): 0.8936; Cleaved PARP-1/GAPDH normalized to control (1) (HT29 cells [2]): 7.064; PARP-1/GAPDH normalized to control (1) (HT29 cells [2]): 0.317; Beclin1/GAPDH normalized to control (1) (HT29 cells [2]): 5.632; ATG5/GAPDH normalized to control (1) (HT29 cells [2]): 0.6185; ATG16L1/GAPDH normalized to control (1) (HT29 cells [2]): 1.309; ATG9A/GAPDH normalized to control (1) (HT29 cells [2]): 1.516; ATG4B/GAPDH normalized to control (1) (HT29 cells [2]): 0.7106; LC3B/GAPDH normalized to control (1) (HT29 cells [2]): 1.044; IC50 (MDA−MB−231 spheroids): 2.49 ± 1.98 µM; IC50 (HT29 spheroids): 990 ± 1290 nM
